Measurements: US20060183119A1, “Method for determining predisposition to a physiological reaction in a patient” (UNIVERSITE LAVAL, priority 2002, published 2006)
Read-outs that look alike come from different tables or passages of the source.

Target: T1, human UGT1A9*3 (Homo sapiens, UniProt O60656, M33T)
T1 sequence (O60656 26-530 M33T): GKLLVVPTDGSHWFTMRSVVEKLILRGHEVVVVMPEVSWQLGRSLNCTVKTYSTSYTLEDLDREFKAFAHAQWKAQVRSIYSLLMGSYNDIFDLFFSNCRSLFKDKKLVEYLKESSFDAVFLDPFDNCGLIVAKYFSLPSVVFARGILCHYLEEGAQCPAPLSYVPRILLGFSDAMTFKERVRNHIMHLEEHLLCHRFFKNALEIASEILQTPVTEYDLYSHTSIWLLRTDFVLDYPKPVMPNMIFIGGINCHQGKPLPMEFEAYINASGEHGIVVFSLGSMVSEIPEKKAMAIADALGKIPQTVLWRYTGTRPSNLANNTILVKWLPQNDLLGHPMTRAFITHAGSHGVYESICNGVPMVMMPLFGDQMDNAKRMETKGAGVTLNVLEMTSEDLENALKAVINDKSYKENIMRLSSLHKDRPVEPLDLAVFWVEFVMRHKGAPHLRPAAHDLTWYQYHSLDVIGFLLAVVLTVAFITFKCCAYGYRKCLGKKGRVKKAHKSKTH
Test: Glucuronidation by microsomes of HEK-293 cells stably expressing UGT1A9*3
Method: Microsomal fractions from HEK-293 cells stably expressing human UGT1A9*1, UGT1A9*2 and UGT1A9*3 were used in enzymatic assays. Reactions (100 μl volume) contained 50 mM Tris-HCl, pH 7.3, 10 mM MgCl2, 100 μg/mL phosphatidylcholine, 1 mM UDP-glucuronic acid, 40 to 60 μg of membrane protein. […] Human liver microsome were incubated in the same condition for control. Reaction was stopped by the addition of 200 μL MeOH+1% HCl 2N, followed by centrifugation at 14000 rpm for 10 minutes. Supernatant was filtered through a 0.22 μm filter and 100 μL of water was added. For SN-38 and SN-38-glucuronide detection, 10 μL samples were injected on a liquid chromatographic system coupled to a fluorescence detector. Time-course experiments were realized to determine the linearity of the glucuronidation reaction.
A liquid chromatographic method was developed to quantify SN-38 glucuronidation of UGT cell line-derived microsomes and human liver microsomes. Samples were analyzed using high performance liquid chromatography (Alliance 2695, Waters, Milford, Mass.). […] At a constant flow rate (0.7 ml/min), a linear gradient from 20 to 65% B was run over 3 min, held 0.8 min and a second gradient until 95% of B was run over 2 min and then re-equilibrated to 20% B over 2 min. The effluent from the HPLC system (Alliance 2695) was connected directly to a fluorescence detector (Waters, Milford, Mass.) using an excitation wavelength of […] and an emission of 460 nm. […] Determination of the glucuronidation rates obtained with other substrates was performed as currently known in the art.
Microsomal fractions from HEK293 (40 to 60 μg) were added to a reaction mixture (100 μL) containing 50 mM Tris-HCl, pH 7.3, 10 mM MgCl2, 100 μg/mL phosphatidylcholine and 2 mM UDP-glucuronic acid. […] Commercially available human liver microsomes (Human Cell Culture Center Inc., Laurel, Md.) were incubated in the same conditions for all experiments. Time-course experiments were performed to determine the linearity of the glucuronidation reaction. For the determination of Vmax and Km. HEK293 cells stably expressing UGT1A9 enzymes were incubated in the presence of various concentrations of SN-38 ranging from 0.1 to 200 μM and incubated for 30 min as described above whereas UGT1A7 membranes preparations were incubated for 3 hours. […] Reactions with SN-38 were stopped by the addition of 200 μL MeOH+1% HCl 2N, followed by centrifugation at 14000×g for 10 minutes. The supernatants were filtered through a 0.22 μm membrane and 100 μL of water was added to the filtrate. For the detection of SN-38 and its glucuronide (SN-38G), 10 μL samples were injected in a liquid chromatographic system (HPLC) coupled to fluorescence detector as described below.
A HPLC method was developed to quantify the rates of SN-38 glucuronidation from the various microsomal fractions under study. The HPLC system used was an Alliance 2695 (Waters, Milford, Mass.) equipped with a 50×3.2 mm Colombus C18 column (Phenomenex, Torrance, Calif.). […] Then a second gradient ranging from 65% to 95% solvent B was generated during the following 2 min. Finally, the column was re-equilibrated to 20% solvent B for 2 min. The column was connected to a fluorescence detector model 474 (Waters, Milford, Mass.) and the molecules were excited at a wavelength of 370 nm and an emission of 425 nm.

[1] = threonine at position 33, versus UGT1A9*1

## CCc1c2c(nc3ccc(O)cc13)-c1cc3c(c(=O)n1C2)COC(=O)[C@]3(O)CC [SN-38, 7-ethyl-10-hydroxycamptothecin]
5 μM of SN-38
  residual activity compared to the wild type enzyme (SN-38G formation): 3.8%
SN-38 glucuronidation
  Vmax values lower for UGT1A9*3 compared with UGT1A9*1: about 26 times
SN-38 glucuronidation, 0.1 to 200 μM, mean±SD
  Vmax: 11.89±2.61 pmol/min/mg protein
SN-38 glucuronidation, Table 5
  Km: 3.21 ± 0.95 µM
  Vmax: 15.50 ± 8.40
In vitro functional genomic assays
  SN-38 glucuronidating activity of the allele (in words): low
read-out: Apparent Km, SN-38 glucuronidation, 0.1 to 200 μM, mean±SD, Lineweaver-Burk
  Km: 3.21 ± 0.95 µM
[1]
  decrease of glucuronidation rate: approximately 20 folds
  decreased conjugation rate for SN-38: 96.3%
Versus UGT1A9*1
  effect of codon 33 variation on affinity of the protein for the substrate (in words): does not affect significantly
